Assay results reported in US20230087560A1, “HYDROFLUORETHERS AND METHODS OF USING SAME” (3M INNOVATIVE PROPERTIES COMPANY, priority 2020, published 2023).

Assays:
[1] = Chemical stability in the presence of DABCO; format: physicochemical; details: 50° C.
Procedure: (§1) Chemical Stability: Stability of compounds in the presence of the bases triethylamine (TEA), 1,4-diazabicyclo[2.2.2]octane (DABCO), and N,N,N,N-tetramethylethylene diamine (TMEDA) was tested as follows. To a 20 mL vial equipped with a magnetic stir bar were added the exemplary and comparative materials in the following starting amounts: Example 1-0.30 g (1.0 mmol), CE4-0.30 g (1.0 mmol) and CE5-0.30 g (1.0 mmol). FC-770 (0.40 g, 1.0 mmol) was added as an internal standard since it is known to be stable in the presence of the base materials tested herein. To this mixture was added one of: triethylamine (0.10 g, 1.0 mmol), DABCO (0.10 g, 0.89 mmol), or TMEDA (0.12 g, 1.0 mmol). The resultant mixture was stirred at 50° C. for 24 hours. GC-FID analysis was performed at specific time intervals to monitor the remaining hydrofluoroether and comparative materials present in the mixture.

[2] = Chemical stability in the presence of triethylamine (TEA); format: physicochemical; details: 50° C.
Procedure: as §1

[3] = Chemical stability in the presence of TMEDA; format: physicochemical; details: 50° C.
Procedure: as §1

[4] = Chemical stability in the presence of NMP, fluoride ion content; format: physicochemical; details: 50° C., 144 h, aqueous layer
Procedure: Stability of compounds in the presence of N-methylpyrrolidinone (NMP) was tested as follows. To a 20 mL glass vial equipped with a magnetic stir bar was added 0.66 g of NMP (6.7 mmol) and one of the following exemplary or comparative materials in the following starting amounts: Example 1-2.0 g (6.7 mmol); CE4-2.0 g (6.7 mmol); CE5-2.0 g (6.7 mmol), or CE6-2.40 g (6.7 mmol). This mixture was then stirred at 50° C. for 144 h. To the resultant mixture was added H2O (6.0 mL) and the aqueous layer was evaluated for fluoride ion content. The samples were analyzed using an Orion EA 940 meter with an Orion 9609BNWB Fluoride-ISE. Orion Ionplus Fluoride standards were used to calibrate the meter.

[5] = Pour point, determined visually; format: physicochemical
Procedure: One to two milliliters of the sample were placed in a vial and cooled in a bath until it solidified. The sample was then allowed to warm slowly in the bath and observed every 3-5° C.

[6] = Kinematic viscosity, Schott-Ubbelohde viscometers; format: physicochemical
Procedure: Kinematic viscosity: Kinematic viscosity was measured using Schott-Ubbelohde Viscometers (glass capillary viscometers). The viscometers were timed using a viscometer timer available under the trade designation AVS-350 from SI Analytics, College Station, Tex., USA. The viscometer measurement stand and glass viscometer were immersed in a temperature-controlled liquid bath filled with NOVEC 7500 fluid available from 3M Company, Maplewood, Minn., USA. The temperature-controlled liquid bath (available from Lawler Manufacturing Corporation, Edison, N.J., USA), was fitted with a copper tubing coil for liquid nitrogen cooling with fine temperature control provided by the bath's electronic temperature control heater. The fluid was mechanically stirred to provide uniform […] temperature in the bath. The bath controlled the temperature within +0.1° C., measured by a built-in RTD temperature sensor. The sample liquid was added to the viscometer between the two fill lines etched on the viscometer. The viscometer timer automatically pumped the sample fluid above the upper timing mark, then released the fluid and measured the efflux times between the upper and lower timing marks. The fluid meniscus was detected by optical sensors as it passed each timing mark. The sample was drawn up and measured repeatedly; results are provided as averages of multiple determinations. The glass viscometers were calibrated using certified kinematic viscosity standard fluids available from Cannon Instrument Company, State College, Pa., USA, to obtain a calibration constant (cSt/sec) for each viscometer. Kinematic viscosity in centiStokes (cSt) was calculated as the average efflux time (sec) times the viscometer calibration constant (cSt/sec).

[7] = Specific heat capacity (Cp) by DSC; format: physicochemical
Procedure: Specific heat capacity (Cp): Cp was measured using a TA Instruments Model Q2000 DSC (Differential Scanning Calorimeter) instrument. A sapphire standard was run before and after the samples and the average of the measured sapphire heat capacity vs. the theoretical heat capacity was used to correct the measured heat capacity of the sample.

rats = assay: Toxicity screening study in rats, 4-hour inhalation; format: in vivo
Procedure: To a 3-neck flask equipped with a magnetic stir bar and reflux condenser were charged 1,1,1,3,3,4,4,4-octafluoro-2-(trifluoromethyl)butan-2-olate cesium salt (300 g of a 33 wt % solution in diglyme, 237 mmol). The resultant reaction mixture was heated to 70° C. followed by the dropwise addition of iodomethane (17 mL, 273 mmol). The reaction mixture was allowed to stir overnight at the same temperature. After cooling to room temperature, H2O (400 mL) was added and the mixture was transferred to a 2 L separatory funnel. The bottom, fluorochemical layer was then separated and analyzed by GC-FID indicating a 58% yield of the title compound. Distillation afforded the desired 1,1,1,2,2,4,4,4-octafluoro-3-methoxy-3-(trifluoromethyl)butane (77° C., 740 mm/Hg, 32.1 g, 45% isolated yield) as a colorless liquid. The identity of the purified composition was confirmed by GC-MS analysis.

COC(F)(F)C(F)(C(F)(F)F)C(F)(F)C(F)(F)F (centres unmarked) [CE5, 2-(difluoro(methoxy)methyl)-1,1,1,2,3,3,4,4,4-nonafluorobutane]
Mole % of Starting Material ([1]; 0 hr): 100 Mole % | Mole % of Starting Material ([1]; 16 hr): 46.7 Mole % | Mole % of Starting Material ([1]; 24 hr): 43.3 Mole % | Mole % of Starting Material ([2]; 0 hr): 100 Mole % | Mole % of Starting Material ([2]; 16 hr): 100 Mole % | Mole % of Starting Material ([2]; 24 hr): 86.7 Mole % | Mole % of Starting Material ([3]; 0 hr): 100 Mole % | Mole % of Starting Material ([3]; 16 hr): 36.7 Mole % | Mole % of Starting Material ([3]; 24 hr): 36.7 Mole % | Fluoride ion content [4]: 657.8 ppm

COC(C(F)(F)C(F)(F)F)(C(F)(F)C(F)(F)F)C(F)(F)C(F)(F)F [Example 3, 1,1,1,2,2,4,4,5,5,5-decafluoro-3-methoxy-3-(1,1,2,2,2-pentafluoroethyl)pentane]
pour point [5]: −62 °C | Kinematic Viscosity ([6]; 0.0 ° C.): 0.97 cSt | Kinematic Viscosity ([6]; −10.0 ° C.): 1.65 cSt | Kinematic Viscosity ([6]; −20.0 ° C.): 2.15 cSt | Kinematic Viscosity ([6]; −30.0 ° C.): 2.88 cSt | Kinematic Viscosity ([6]; −40.0 ° C.): 5.19 cSt | Specific Heat Capacity [7]: 1.16 J/g · K

COC(C(F)(F)F)(C(F)(F)F)C(F)(F)C(F)(F)F [Example 1, 1,1,1,2,2,4,4,4-octafluoro-3-methoxy-3-(trifluoromethyl)butane]
Mole % of Starting Material ([1]; 0 hr): 100 Mole % | Mole % of Starting Material ([1]; 16 hr): 100 Mole % | Mole % of Starting Material ([1]; 24 hr): 100 Mole % | Mole % of Starting Material ([2]; 0 hr): 100 Mole % | Mole % of Starting Material ([2]; 16 hr): 100 Mole % | Mole % of Starting Material ([2]; 24 hr): 100 Mole % | Mole % of Starting Material ([3]; 0 hr): 100 Mole % | Mole % of Starting Material ([3]; 16 hr): 100 Mole % | Mole % of Starting Material ([3]; 24 hr): 100 Mole % | Fluoride ion content [4]: 15.1 ppm | 4-hour inhalation LC50 (rats): > 1,840 ppm

COC(F)(C(F)(F)F)C(F)(C(F)(F)F)C(F)(F)F (centres unmarked) [CE4, 1,1,1,2,3,4,4,4-octafluoro-2-methoxy-3-(trifluoromethyl)butane]
Mole % of Starting Material ([1]; 0 hr): 100 Mole % | Mole % of Starting Material ([1]; 16 hr): 66.7 Mole % | Mole % of Starting Material ([1]; 24 hr): 56.7 Mole % | Mole % of Starting Material ([2]; 0 hr): 100 Mole % | Mole % of Starting Material ([2]; 16 hr): 100 Mole % | Mole % of Starting Material ([2]; 24 hr): 96.7 Mole % | Mole % of Starting Material ([3]; 0 hr): 100 Mole % | Mole % of Starting Material ([3]; 16 hr): 53.3 Mole % | Mole % of Starting Material ([3]; 24 hr): 53.3 Mole % | Fluoride ion content [4]: 388.8 ppm
